Reference: patent US5066658A, “Substituted hydroxyureas” (Ortho Pharmaceutical Corporation, priority 1990, dated 1991)

Tests used:
[1] = system: Arachidonate-Induced Bronchospasm (lipoxygenase); assay: Pulmonary Mechanics Assay: arachidonate-induced bronchospasm with indomethacin (SRS-A response, indicative of lipoxygenase inhibition); format: in vivo, male Hartley guinea pigs; details: Cavia porcellus, guinea pig; for inhibition in vivo at 50 mg/kg: ID dosing, read-out: Inhibition of Arachidonate-Induced Bronchospasm (ID Dosing), % Inh. with Indomethacin; for inhibition in vivo at 15 mg/kg: IV dosing, read-out: Inhibition of Arachidonate-Induced Bronchospasm (IV Dosing), % Inh. with Indomethacin
Method: (§1) The bronchodilating activity of the compounds was tested in a pulmonary mechanics assay. Basically, male Hartley guinea pigs (about 400-500 g) were anesthetized with urethane (2 g/kg, i.p.) and placed in a whole body Plethysmograph. Cannulations of a jugular vein and carotid artery were performed for compound administration and monitoring blood pressure, respectively. The trachea was cannulated for respiration at a constate volume via a miniature starling pump. A Validyne differential pressure transducer (±20 cm H2 O) sensed transpleural pressure via a 15 gauge needle inserted into the pleural cavity and a sidearm from the tracheal cannula. Tidal volume was sensed by another Validyne differential pressure transducer (±2 cm H2 O) from pressure changes inside the plethysmograph. An on-line Buxco pulmonary mechanics computer calculated air flow, dynamic lung compliance and lung resistance. The values were recorded on a print-out.
(§2) The guinea pigs were pretreated with succinyl choline (1.2 mg/kg, i.v.) to arrest spontaneous respiration. A control challenge of arachidonic acid (0.5-1.0 mg/kg, i.v.) was administered, and the animals were then dosed with the test compound by various routes. At least 10 minutes were allowed to expire between arachidonic acid challenges. A second challenge was given and compared to the control response. This comparison was indicative of cyclooxygenase inhibition. Indomethacin (10 mg/kg, i.v.) was administered immediately after the second challenge. A third challenge of a higher dose of arachidonic acid (5-10 mg/kg, i.v.) was given. This response was induced by SRS-A and compared to the responses elicited by a separate control group of animals. Activity was indicative of lipoxygenase inhibition. Propranolol (0.005 mg/kg. i.v.) may be given prior to the third challenge to enhance the response to SRS-A.
(§3) Bronchoconstriction induced by arachidonic acid with or without indomethacin was expressed as maximum percent change in dynamic lung compliance (Cdyn) and maximum percent increase in lung resistance (RL). Each guinea pig served as its own control for cyclooxygenase evaluation. The results are shown in Table I and are expressed as the percent inhibition of control.

[2] = system: Arachidonate-Induced Bronchospasm (cyclooxygenase); assay: Pulmonary Mechanics Assay: arachidonate-induced bronchospasm without indomethacin (indicative of cyclooxygenase inhibition); format: in vivo, male Hartley guinea pigs; details: Cavia porcellus, guinea pig; for inhibition in vivo at 50 mg/kg: ID dosing, read-out: Inhibition of Arachidonate-Induced Bronchospasm (ID Dosing), % Inh. without Indomethacin; for inhibition in vivo at 15 mg/kg: IV dosing, read-out: Inhibition of Arachidonate-Induced Bronchospasm (IV Dosing), % Inh. without Indomethacin
Method: as §1, §2, §3

5-lipoxygenase = target: T1, 5-lipoxygenase (Rattus norvegicus, UniProt P12527); assay: Inhibition of 5-lipoxygenase in cell-free homogenate of rat basophilic leukemia (RBL-1) cells; format: biochemical; details: 3 μM; RBL-1 cell-free homogenate; read-out: Inhibition of 5-Lipoxygenase, % Inh. @ 3 μM
T1 construct: The cell-free homogenate was prepared by sonication of the cells followed by centrifugation at 40,000 xg; endogenous in cells; host or cells: RBL-1 (rat basophilic leukemia) cells, 40,000 xg supernatant of the sonicate
T1 sequence (P12527 1-673): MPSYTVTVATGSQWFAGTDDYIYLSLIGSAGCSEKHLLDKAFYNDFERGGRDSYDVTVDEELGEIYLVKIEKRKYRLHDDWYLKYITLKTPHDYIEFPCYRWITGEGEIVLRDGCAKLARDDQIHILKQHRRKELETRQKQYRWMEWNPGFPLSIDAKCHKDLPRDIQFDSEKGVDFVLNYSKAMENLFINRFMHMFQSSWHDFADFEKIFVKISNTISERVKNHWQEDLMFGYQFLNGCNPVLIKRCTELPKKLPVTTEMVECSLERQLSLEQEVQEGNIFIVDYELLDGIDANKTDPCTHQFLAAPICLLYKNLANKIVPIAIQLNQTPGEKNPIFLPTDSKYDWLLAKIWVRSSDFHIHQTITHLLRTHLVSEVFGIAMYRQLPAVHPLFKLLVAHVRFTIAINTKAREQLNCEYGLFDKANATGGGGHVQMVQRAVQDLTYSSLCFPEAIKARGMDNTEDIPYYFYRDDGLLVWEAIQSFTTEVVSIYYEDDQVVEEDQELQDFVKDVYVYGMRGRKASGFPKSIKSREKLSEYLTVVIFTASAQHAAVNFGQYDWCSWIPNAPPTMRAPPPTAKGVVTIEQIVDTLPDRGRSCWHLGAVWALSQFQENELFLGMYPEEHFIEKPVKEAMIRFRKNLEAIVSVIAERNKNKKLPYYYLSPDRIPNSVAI
Method: The inhibition of 5-lipoxygenase was tested in a cell-free homogenate by the procedure of B. Jakschik et al., Biochem.Biophys.Res.Comm. 95, 103 (1980). Basically, rat basophilic leukemia cells (RBL-1 cells) were maintained in culture in a suitable medium, and were collected by centrifugation prior to assay. The cell-free homogenate was prepared by sonication of the cells followed by centrifugation at 40,000 xg. The CaCl2 dependent production of lipoxygenase products from ^14 C-arachidonic acid in the 40,000 xg supernatant was monitored in the presence of buffer (or other vehicle) or drug. Products were isolated by acidification and extraction, followed by thin layer chromatography. Radioactive areas corresponding to the authentic lipoxygenase products were quantitated by liquid scintillation counting. Data was reported as the IC50, the concentration causing 50% inhibition of the generation of lipoxygenase products. The results are shown it Table I as the percent inhibition at 3 μM or the amount of compound necessary to cause 50% inhibition.

inhibition at 3 µM (5-lipoxygenase) [%] | Structure (SMILES) | inhibition in vivo at 50 mg/kg [1] [%] | inhibition in vivo at 15 mg/kg [1] [%] | inhibition in vivo at 50 mg/kg [2] [%] | inhibition in vivo at 15 mg/kg [2] [%]
100 | CCCCCCN(O)C(=O)N(C)C [Example 10, N,N-Dimethyl-N'-hexyl-N'-hydroxyurea] |  |  |  | 
94 | C=CCCCCCCCCNC(=O)N(C)O [Example 18, N-(9-Decenyl)-N'-methyl-N'-hydroxyurea] |  |  |  | 
22 | C=CCCCCCCCCC(O)CNC(=O)N(C)O (centres unmarked) [Example 21, N-(2-Hydroxy-11-dodecenyl)-N'-methyl-N'-hydroxyurea] |  |  |  | 
71 | CCCCC/C=C\C/C=C\C/C=C\C/C=C\CCCNC(=O)N(C)O [Example 22, N-(4,7,10,13-Nonadecatetraenyl)-N'-methyl-N'-hydroxyurea] |  |  |  | 
71 | CN(O)C(=O)NCCCc1ccc(-c2ccccc2)cc1 [Example 32, N-[3-([1,1'-Biphenyl]-4-yl)propyl]-N'-hydroxy-N'-methylurea] | < 20 |  | < 20 | 
93 | CN(O)C(=O)NCCCOc1ccc(-c2ccccc2)cc1 [Example 34, N-[3-([l,l'biphenyl]-4-yloxy)propyl]N'hydroxy N'methylurea] | 34 |  | -74 | 
79 | CN(O)C(=O)NCCCCOc1ccc(-c2ccccc2)cc1 [Example 35, N-[4-([1,1'-Biphenyl]-4-yloxy)butyl]N'-hydroxy-N'-methylurea] | 33 |  | < 20 | 
67 | CN(O)C(=O)NCCCCCOc1ccc(-c2ccccc2)cc1 [Example 36, N-[5-([l,l'Biphenyl]-4-yloxy)pentyl]N'-hydroxy-N'-methylurea] | 31 |  | < 20 | 
65 | CN(O)C(=O)NCCCCCCOc1ccc(-c2ccccc2)cc1 [Example 37, N-[6-([1,1'-Biphenyl]-4-yloxy)hexyl]N'hydroxy-N'-methylurea] | -11 |  | -33 | 
56 | CN(O)C(=O)NCCCCCCCOc1ccc(-c2ccccc2)cc1 [Example 38] | < 20 |  | -9 | 
56 | COc1ccc(OC)c(CCNC(=O)N(C)O)c1 [Example 47, N-[2-(2,5-Dimethoxyphenyl)ethyl]-N'-hydroxy-N'-methylurea] |  |  |  | 
42 | COc1cc(CCNC(=O)N(C)O)cc(OC)c1 [Example 48, N-[2-(3,5-Dimethoxyphenyl)ethyl]-N'-hydroxy-N'-methylurea] |  |  |  | 

Second part, the compound before the results:

Structure (SMILES) | inhibition at 3 µM (5-lipoxygenase) [%] | inhibition in vivo at 50 mg/kg [1] [%] | inhibition in vivo at 15 mg/kg [1] [%] | inhibition in vivo at 50 mg/kg [2] [%] | inhibition in vivo at 15 mg/kg [2] [%]
COc1ccc([C@@H]2C[C@H]2NC(=O)N(C)O)cc1OC (relative stereo) [Example 66, N-[Trans-2-(3,4-dimethoxyphenyl)cyclopropyl]-N'-hydroxy-N'-methylurea] | 28 | 45 | 90 | 43 | 61
CCCCCCCCCCC1CN(C)C(=O)N(O)C1 (centres unmarked) [Example 29, 5-Decyl-1-hydroxy-3-methyl-3,4,5,6-tetrahydro-lH-pyrimidin-2-one] | 30 |  |  |  | 
CN(O)C(=O)NCc1ccc(-c2ccccc2)cc1 [Example 30, N-([1,1'-Biphenyl]-4-ylmethyl)N'hydroxy-N'methylurea] | 74 | < 20 |  | < 20 | 
CN(O)C(=O)NCCOc1ccc(-c2ccccc2)cc1 [Example 33, N-[2-([1,1'-biphenyl]-4-yloxy)ethyl]N'-hydroxy-N'-methylurea] | 70 | 28 |  | < 20 | 
COc1ccc(CCNC(=O)N(O)C(C)C)cc1OC [Example 41, N-[2-(3,4-Dimethoxyphenyl)ethyl]-N'-hydroxy-N'-(1-methylethyl)urea] | 95 | 30 | 70 | < 20 | 42
COc1ccc(CNC(=O)N(C)O)cc1OC [Example 42, N-[(3,4-Dimethoxyphenyl)methyl]-N'-hydroxy-N'-methylurea] | 28 |  |  |  | 
COc1cc(CCNC(=O)N(C)O)cc(OC)c1OC [Example 45, N-[2-(3,4,5-Trimethoxyphenyl)ethyl]-N'-hydroxy-N'-methylurea] | 36 |  |  |  | 
CN(O)C(=O)NCCc1ccc2c(c1)OCCO2 [Example 46, N-[2-(Benzo-1,4-dioxan-6-yl)ethyl]-N'-hydroxy-N'-methylurea] | 42 |  |  |  | 
COc1ccc(CC(C)NC(=O)N(C)O)cc1OC (centres unmarked) [Example 54, N-[2-(3,4-Dimethoxyphenyl)-1-methylethyl]-N'-hydroxy-N'-methylurea] | 8 |  |  |  | 
COc1cc2c(cc1OC)CC(NC(=O)N(C)O)C2 [Example 57, N-(5,6-Dimethoxyindan-2-yl)-N'-hydroxy-N'-methylurea] | 55 |  |  |  | 
COc1ccc(C2C3CCC(C3)C2NC(=O)N(C)O)cc1OC (stereo not drawn) [Example 59, N-[trans-3-(3,4-Dimethoxyphenyl)bicyclo[2.2.1]-heptan-2-yl]-N '-hydroxy-N'-methylurea] | 39 |  |  |  | 
COc1ccc(CCN(CC(C)C)C(=O)N(C)O)cc1OC [Example 64, N-[2-(3,4-Dimethoxyphenyl)ethyl]-N'-hydroxy-N'-methyl-N-(2-methylpropyl)urea] | 33 |  |  |  | 
COc1ccc(CCN(C(=O)N(C)O)c2ccc(Cl)cc2)cc1OC [Example 67, N-[2-(3,4-Dimethyloxyphenyl)ethyl]-N-(4-chlorophenyl)-N'-methyl-N'-hydroxyurea] | 48 |  |  |  | 
COc1cccc(C2CCCN(C(=O)N(C)O)C2)c1 (centres unmarked) [Example 73, N-Hydroxy-3-(3-methoxyphenyl)-N-methylpiperidine-1-carboxamide] | 46 |  |  |  | 
CCOC(=O)CCCN(O)C(=O)NCCc1ccc(OC)c(OC)c1 [Example 74, N-[2-(3,4-Dimethoxyphenyl)ethyl]-N'-[3-(ethoxycarbonyl)propyl]-N'-hydroxyurea] | 42 |  |  |  | 
CN(O)C(=O)N1CCC(C(c2ccccc2)c2ccccc2)CC1 [Example 75, 4-(Diphenylmethyl)-N-hydroxy-N-methylpiperidine-1-carboxamide] | 44 |  |  |  | 
CN(O)C(=O)NCCc1cccc(Oc2ccccc2)c1 [Example 76, N-Hydroxy-N-methyl-N'-[2-(3-phenoxyphenyl)ethyl]urea] | 66 |  |  |  | 
